Our source for the IC50 values is ChEMBL document CHEMBL4342480, “Design of Dual Inhibitors of Soluble Epoxide Hydrolase and LTA4 Hydrolase” (ACS Med Chem Lett, 2020).

Assay [1] addresses T1, Bifunctional epoxide hydrolase 2 (Homo sapiens, UniProt P34913).
T1 sequence (P34913 whole entry): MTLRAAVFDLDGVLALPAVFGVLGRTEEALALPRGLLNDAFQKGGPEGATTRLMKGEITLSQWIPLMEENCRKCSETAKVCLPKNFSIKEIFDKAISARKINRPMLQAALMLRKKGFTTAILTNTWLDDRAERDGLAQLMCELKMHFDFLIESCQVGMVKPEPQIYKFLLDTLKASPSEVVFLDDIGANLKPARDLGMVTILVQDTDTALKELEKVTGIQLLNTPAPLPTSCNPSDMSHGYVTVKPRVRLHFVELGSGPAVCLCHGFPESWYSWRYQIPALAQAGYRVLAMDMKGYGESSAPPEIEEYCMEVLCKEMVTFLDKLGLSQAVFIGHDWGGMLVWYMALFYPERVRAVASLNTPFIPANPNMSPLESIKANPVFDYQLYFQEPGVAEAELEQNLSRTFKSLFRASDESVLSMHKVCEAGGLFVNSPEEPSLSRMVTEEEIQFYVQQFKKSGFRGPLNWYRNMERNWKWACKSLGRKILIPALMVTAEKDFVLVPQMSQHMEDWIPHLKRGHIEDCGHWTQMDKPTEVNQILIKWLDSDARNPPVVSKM
The assay can be described thus: Inhibition of full length human soluble epoxide hydrolase (1 to 555 residues) expressed in Escherichia coli BL21(DE3) using non-fluorescent PHOME as substrate preincubated for 30 mins followed by substrate addition and measured for 30 mins by fluorescence based assay.

Assay [2] has as its target T2, Leukotriene A-4 hydrolase (Homo sapiens, UniProt P09960).
T2 sequence (P09960 whole entry): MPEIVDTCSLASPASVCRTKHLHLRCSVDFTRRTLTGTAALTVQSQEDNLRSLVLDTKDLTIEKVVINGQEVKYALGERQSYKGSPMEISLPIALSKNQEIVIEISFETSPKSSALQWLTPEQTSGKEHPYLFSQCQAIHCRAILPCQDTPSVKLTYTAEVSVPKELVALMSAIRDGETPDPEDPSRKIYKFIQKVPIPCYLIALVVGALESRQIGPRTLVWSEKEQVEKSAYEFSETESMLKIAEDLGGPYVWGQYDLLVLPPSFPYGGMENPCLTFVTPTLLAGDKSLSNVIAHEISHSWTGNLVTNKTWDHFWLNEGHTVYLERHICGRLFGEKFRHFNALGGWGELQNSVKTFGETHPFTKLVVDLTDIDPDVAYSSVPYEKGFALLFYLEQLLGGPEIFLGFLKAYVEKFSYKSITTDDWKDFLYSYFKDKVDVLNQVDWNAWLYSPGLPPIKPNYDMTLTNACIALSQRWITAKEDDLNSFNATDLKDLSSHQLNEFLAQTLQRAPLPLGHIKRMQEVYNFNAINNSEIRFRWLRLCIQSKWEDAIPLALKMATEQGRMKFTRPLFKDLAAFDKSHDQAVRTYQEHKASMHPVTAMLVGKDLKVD
The assay can be described thus: Inhibition of (His)6 tagged human recombinant LTA4H expressed in Escherichia coli BL21(DE3) using non-fluorescent L-arginine-7-amino-4-methylcoumarine as substrate preincubated for 30 mins followed by substrate addition and measured for 30 mins by fluorescence based assay.

On to `O=C(Cc1ccc(Oc2nc3ccccc3s2)cc1F)NCc1c[nH]c2cc(F)ccc12`, for which the IC50 stood at 5.6 µM in assay [1] and 0.9 µM in assay [2].
For `O=C(Cc1ccc(Oc2nc3cc(F)ccc3s2)cc1F)NCCc1ccc(F)cc1`, the IC50 in assay [1] is 22.5 µM; in assay [2], greater than 30 µM.
For the compound `O=C(Cc1ccc(Oc2nc3ccccc3s2)cc1F)NCCc1ccccc1F`, the IC50 in assay [1] worked out at 0.6 µM; in assay [2], 3.8 µM.
For `O=C(Cc1ccc(Oc2ccccc2)cc1)NCCc1ccc(Cl)cc1`, the 50% inhibitory concentration (IC50) in assay [1] was found to be 1.8 µM.
In the case of `O=C(Cc1ccc(Oc2ccccc2)cc1)NCCc1ccc(OC(F)(F)F)cc1`, the IC50 in assay [1] stood at 0.5 µM.
For the compound `O=C(CCc1ccc(OCc2ccncc2)cc1)NCCc1ccc(F)cc1`, the IC50 in assay [1] is 0.8 µM; in assay [2], greater than 30 µM.
Turning to `O=C(Cc1ccc(Oc2ccccc2)cc1)NCCc1ccc(C(F)(F)F)cc1`, in assay [1], inhibition was half-maximal at 0.5 µM (IC50).
As to `O=C(Cc1ccc(Oc2nc3ccc(C(F)(F)F)cc3s2)cc1F)NCCc1ccc(F)cc1`, the IC50 in assay [1] is 20.1 µM; in assay [2], greater than 30 µM.
As for `O=C(Cc1ccc(Oc2ccccc2)cc1)NCCc1ccc(F)cc1`, 0.9 µM corresponded to half-maximal inhibition in assay [1] (IC50).
`Cc1ccc(CCNC(=O)Cc2ccc(Oc3ccccc3)cc2)cc1`: the results for the IC50 in assay [1] and in assay [2] were 1.1 µM and greater than 30 µM, respectively.
On to `O=C(Cc1ccc(Oc2nc3ccccc3s2)cc1F)NCCc1cccc(F)c1`, for which, in assay [1], the IC50 was found to be 0.4 µM.
As to `O=C(Cc1ccc(Oc2nc3cc(C(F)(F)F)ccc3s2)cc1F)NCCc1ccc(F)cc1`, the IC50 in assay [1] was 1.7 µM; in assay [2] it was greater than 30 µM.
Regarding `O=C(Cc1ccc(Oc2nc3ccccc3s2)cc1)NCCc1ccc(F)cc1`, the figures for the IC50 in assay [1] and in assay [2] were 0.13 µM and 0.24 µM, respectively.
For `Fc1ccc(CCNCc2ccc(Oc3ccccc3)cc2)cc1`, the IC50 in assay [1] turned out to be 3.6 µM; in assay [2], 0.2 µM.
With `COC(=O)c1ccc(CNC(=O)Cc2ccc(Oc3nc4ccccc4s3)cc2F)cc1`, the figures for the IC50 in assay [1] and in assay [2] were 0.1 µM and greater than 30 µM, respectively.
Regarding `O=C(Cc1ccc(Oc2nc3ccc(F)cc3s2)cc1F)NCCc1ccc(F)cc1`, the values for the IC50 in assay [1] and in assay [2] were 27.5 µM and greater than 30 µM, respectively.

One may read the IC50 as the concentration at which inhibition is half-maximal.
